How the values were obtained:
HepG2 = assay: Cytotoxicity against human HepG2 cells up to 100 uM; type: cell-based
[1] = target: T1, Bifunctional epoxide hydrolase 2 (Rattus norvegicus, UniProt P80299); assay: Inhibition of rat soluble epoxide hydrolase in cell free system
T1 sequence (P80299 whole entry): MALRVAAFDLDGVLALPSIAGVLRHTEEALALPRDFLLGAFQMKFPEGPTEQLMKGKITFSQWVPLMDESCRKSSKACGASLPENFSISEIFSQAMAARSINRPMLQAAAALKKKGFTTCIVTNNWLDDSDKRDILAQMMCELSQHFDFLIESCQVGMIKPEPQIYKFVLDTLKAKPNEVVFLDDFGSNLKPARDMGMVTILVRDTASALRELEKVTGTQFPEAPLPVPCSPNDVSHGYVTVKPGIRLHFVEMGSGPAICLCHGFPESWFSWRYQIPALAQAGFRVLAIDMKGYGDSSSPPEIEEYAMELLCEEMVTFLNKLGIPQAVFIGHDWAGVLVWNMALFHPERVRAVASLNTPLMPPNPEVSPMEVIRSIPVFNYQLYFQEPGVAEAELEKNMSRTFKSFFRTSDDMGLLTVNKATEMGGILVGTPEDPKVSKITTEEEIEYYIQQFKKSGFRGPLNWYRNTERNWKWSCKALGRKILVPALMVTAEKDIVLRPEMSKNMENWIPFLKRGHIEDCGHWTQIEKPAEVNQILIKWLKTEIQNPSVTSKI

Liver microsomes [2] = assay: Intrinsic clearance in human liver microsome measured per mg of protein; type: ADME
Liver microsomes [3] = assay: Intrinsic clearance in rat liver microsome measured per mg of protein; type: ADME
Cytochrome P450 2C19 = Cytochrome P450 2C19 (Homo sapiens, UniProt P33261); assay: Inhibition of CYP2C19; type: ADME
Sequence of Cytochrome P450 2C19 (P33261 whole entry): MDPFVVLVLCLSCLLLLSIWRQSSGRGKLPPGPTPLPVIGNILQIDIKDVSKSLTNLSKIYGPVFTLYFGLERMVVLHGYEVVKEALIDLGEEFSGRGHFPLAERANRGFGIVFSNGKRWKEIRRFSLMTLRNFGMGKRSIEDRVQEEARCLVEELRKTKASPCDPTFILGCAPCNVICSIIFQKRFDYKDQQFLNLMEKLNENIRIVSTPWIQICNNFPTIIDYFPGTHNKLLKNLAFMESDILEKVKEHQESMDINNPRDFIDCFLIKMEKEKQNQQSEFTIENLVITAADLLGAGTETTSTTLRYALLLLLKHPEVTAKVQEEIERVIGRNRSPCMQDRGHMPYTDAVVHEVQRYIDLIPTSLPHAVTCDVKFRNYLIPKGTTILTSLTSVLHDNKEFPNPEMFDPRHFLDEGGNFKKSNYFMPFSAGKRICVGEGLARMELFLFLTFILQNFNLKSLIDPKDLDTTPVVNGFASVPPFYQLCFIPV

[4] = target: T2, Bifunctional epoxide hydrolase 2 (Homo sapiens, UniProt P34913); assay: Inhibition of human soluble epoxide hydrolase in cell free system
T2 sequence (P34913 whole entry): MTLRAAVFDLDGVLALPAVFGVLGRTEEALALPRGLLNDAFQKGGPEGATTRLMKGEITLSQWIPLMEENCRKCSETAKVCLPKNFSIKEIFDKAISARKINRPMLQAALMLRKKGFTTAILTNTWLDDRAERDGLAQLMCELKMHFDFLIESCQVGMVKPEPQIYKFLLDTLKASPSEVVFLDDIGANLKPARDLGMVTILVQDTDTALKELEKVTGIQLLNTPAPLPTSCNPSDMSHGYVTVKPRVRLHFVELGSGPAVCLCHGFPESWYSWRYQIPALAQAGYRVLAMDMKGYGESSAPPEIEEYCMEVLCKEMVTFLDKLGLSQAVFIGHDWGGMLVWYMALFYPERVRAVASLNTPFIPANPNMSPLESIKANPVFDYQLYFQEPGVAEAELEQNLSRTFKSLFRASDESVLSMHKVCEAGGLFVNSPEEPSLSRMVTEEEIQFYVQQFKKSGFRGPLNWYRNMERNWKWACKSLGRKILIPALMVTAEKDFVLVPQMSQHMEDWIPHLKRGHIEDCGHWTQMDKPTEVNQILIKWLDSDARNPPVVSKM

[5] = target: T2, Bifunctional epoxide hydrolase 2; assay: Inhibition of soluble epoxide hydrolase in human HepG2 cells after 30 mins; type: cell-based
[6] = Aqueous solubility of the compound at pH 7.4; type: physicochemical
Cytochrome P450 1A2 = target: T3, Cytochrome P450 1A2 (Homo sapiens, UniProt P05177); assay: Inhibition of CYP1A2; type: ADME
T3 sequence (P05177 whole entry): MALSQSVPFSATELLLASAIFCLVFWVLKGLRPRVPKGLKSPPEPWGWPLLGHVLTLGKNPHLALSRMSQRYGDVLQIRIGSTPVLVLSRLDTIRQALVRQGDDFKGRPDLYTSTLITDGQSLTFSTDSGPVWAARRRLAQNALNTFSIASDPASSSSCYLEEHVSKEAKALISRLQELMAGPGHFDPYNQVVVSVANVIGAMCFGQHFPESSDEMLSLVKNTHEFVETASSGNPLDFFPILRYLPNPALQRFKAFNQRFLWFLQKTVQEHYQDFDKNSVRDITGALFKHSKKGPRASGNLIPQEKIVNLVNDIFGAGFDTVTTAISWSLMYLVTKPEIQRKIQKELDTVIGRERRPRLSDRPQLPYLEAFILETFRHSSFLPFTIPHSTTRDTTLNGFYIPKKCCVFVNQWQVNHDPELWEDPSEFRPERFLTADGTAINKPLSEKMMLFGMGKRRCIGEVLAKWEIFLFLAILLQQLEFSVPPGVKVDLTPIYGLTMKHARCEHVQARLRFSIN

CC(C)c1noc(C2CCN(C(=O)N[C@H]3C[C@@H]3c3ccccc3)CC2)n1 (racemic)
Activity (HepG2): Non-toxic
IC50 [1]: 13 nM

COc1cccc2c1CC(C(=O)N[C@H]1C[C@@H]1c1ccccc1)CC2 (mixture of isomers)
CL (Liver microsomes [2]): > 100 µL/min/mg
CL (Liver microsomes [3]): > 100 µL/min/mg
IC50 (Cytochrome P450 2C19): < 10000 nM
IC50 [4]: 6.46 nM
IC50 [1]: 3.02 nM
IC50 [5]: 4.68 nM
solubility [6]: < 1 µg/mL

O=C(NC1CCN(c2ccccc2)CC1)N[C@H]1C[C@@H]1c1ccccc1 (racemic)
CL (Liver microsomes [3]): > 100 µL/min/mg
IC50 [4]: 2.29 nM
IC50 [1]: 1.7 nM
IC50 [5]: 7.94 nM
solubility [6]: < 1 µg/mL

O=C(N[C@H]1C[C@@H]1c1ccccc1)c1ccc2nonc2c1 (racemic)
IC50 (Cytochrome P450 2C19): < 10000 nM
IC50 [4]: 61.7 nM
IC50 [1]: 240 nM
solubility [6]: < 1 µg/mL

CN(C)c1ccc(CNC(=O)N[C@H]2C[C@@H]2c2ccccc2)cc1 (racemic)
CL (Liver microsomes [3]): > 100 µL/min/mg
IC50 (Cytochrome P450 1A2): < 10000 nM
IC50 (Cytochrome P450 2C19): < 10000 nM
IC50 [4]: 30.2 nM

Cc1nc2cc(NC(=O)N[C@H]3C[C@@H]3c3ccccc3)ccc2o1 (racemic)
CL (Liver microsomes [2]): > 100 µL/min/mg
CL (Liver microsomes [3]): > 100 µL/min/mg
IC50 [4]: 39.8 nM
IC50 [1]: 20 nM
IC50 [5]: 81.3 nM
solubility [6]: < 1 µg/mL

Source: ChEMBL document CHEMBL1671815, “A practical use of ligand efficiency indices out of the fragment-based approach: ligand efficiency-guided lead identification of soluble epoxide hydrolase inhibitors” (J Med Chem, 2011)
